Test results from ChEMBL document CHEMBL1201862, “PubChem BioAssay data set” (2004).
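Cells were grown in 96-well plates and exposed to each compound for 48 hours at five concentrations; endpoints were interpolated linearly between bracketing concentrations, or set to the highest concentration if not reached. Here, GI50 denotes the concentration required for 50% inhibition of growth.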 The source made the active and inactive calls. Cut-off read from the data, not from the text of the source: active = GI50 up to about 1.1 µM and inactive = higher.

What was measured:
Assay in all cases: NCI-60 cell line screen, 48 h
A498 = test system: A498
A549 = test system: A549
ACHN = test system: ACHN
CCRF-CEM = test system: CCRF-CEM
DMS-273 = test system: DMS-273
HCT-15 = test system: HCT-15
HL-60 = test system: HL-60
IGROV-1 = test system: IGROV-1
LOX IMVI = test system: LOX IMVI
OVCAR-8 = test system: OVCAR-8
SK-MEL-28 = test system: SK-MEL-28
SK-MEL-2 = test system: SK-MEL-2
SN12C = test system: SN12C
SNB-19 = test system: SNB-19
SW-620 = test system: SW-620
U-251 = test system: U-251
UACC-257 = test system: UACC-257
UO-31 = test system: UO-31
NCI/ADR-RES = test system: NCI/ADR-RES
MDA-MB-435 = test system: MDA-MB-435

| Structure (SMILES) | GI50 (A498) | GI50 (A549) | GI50 (ACHN) | GI50 (CCRF-CEM) | GI50 (DMS-273) | GI50 (HCT-15) [µM] | GI50 (HL-60) | GI50 (IGROV-1) | GI50 (LOX IMVI) | GI50 (OVCAR-8) | GI50 (SK-MEL-28) | GI50 (SK-MEL-2) | GI50 (SN12C) | GI50 (SNB-19) | GI50 (SW-620) | GI50 (U-251) | GI50 (UACC-257) | GI50 (UO-31) | GI50 (NCI/ADR-RES) | GI50 (MDA-MB-435) |
| --- | --- | --- | --- | --- | --- | --- | --- | --- | --- | --- | --- | --- | --- | --- | --- | --- | --- | --- | --- | --- |
| C=CC(=O)NCNC(=O)C=C | > 100 µM (inactive) | > 100 µM (inactive) | > 100 µM (inactive) | > 100 µM (inactive) | > 100 µM (inactive) | > 100 | > 100 µM (inactive) | > 100 µM (inactive) | > 100 µM (inactive) | > 100 µM (inactive) | > 100 µM (inactive) | > 100 µM (inactive) | > 100 µM (inactive) | > 100 µM (inactive) | > 100 µM (inactive) | > 100 µM (inactive) | > 100 µM (inactive) | > 100 µM (inactive) | – | – |
| Cc1cc(Cl)ccc1NC(=O)C(=O)Cc1ccc([N+](=O)[O-])c([N+](=O)[O-])c1CC(=O)C(=O)Nc1ccc(Cl)cc1C | > 100 µM (inactive) | > 100 µM (inactive) | > 100 µM (inactive) | 78.7 µM (inactive) | > 100 µM (inactive) | > 100 | > 100 µM (inactive) | > 100 µM (inactive) | > 100 µM (inactive) | > 100 µM (inactive) | > 100 µM (inactive) | > 100 µM (inactive) | > 100 µM (inactive) | > 100 µM (inactive) | > 100 µM (inactive) | > 100 µM (inactive) | > 100 µM (inactive) | > 100 µM (inactive) | – | – |
| NC(=O)c1csc(C2CCC(CO)O2)n1 (stereo not given) | > 100 µM (inactive) | > 100 µM (inactive) | > 100 µM (inactive) | > 100 µM (inactive) | > 100 µM (inactive) | > 100 | > 100 µM (inactive) | > 100 µM (inactive) | > 100 µM (inactive) | > 100 µM (inactive) | > 100 µM (inactive) | > 100 µM (inactive) | > 100 µM (inactive) | > 100 µM (inactive) | > 100 µM (inactive) | > 100 µM (inactive) | > 100 µM (inactive) | > 100 µM (inactive) | – | – |
| CC(C)=NNC(=S)NC12CC3CC(CC(C3)C1)C2 | > 100 µM (inactive) | > 100 µM (inactive) | > 100 µM (inactive) | > 100 µM (inactive) | > 100 µM (inactive) | > 100 | > 100 µM (inactive) | > 100 µM (inactive) | > 100 µM (inactive) | > 100 µM (inactive) | > 100 µM (inactive) | > 100 µM (inactive) | > 100 µM (inactive) | > 100 µM (inactive) | > 100 µM (inactive) | > 100 µM (inactive) | > 100 µM (inactive) | > 100 µM (inactive) | – | – |
| Cn1c2c(c3ccccc31)CCN(CCN1CCN(c3ccccc3)CC1)C2=O | – | > 100 µM (inactive) | > 100 µM (inactive) | > 100 µM (inactive) | > 100 µM (inactive) | > 100 | > 100 µM (inactive) | > 100 µM (inactive) | > 100 µM (inactive) | > 100 µM (inactive) | > 100 µM (inactive) | – | > 100 µM (inactive) | – | > 100 µM (inactive) | > 100 µM (inactive) | – | > 100 µM (inactive) | – | – |
| O=C(/C=C/c1cccc2ccccc12)c1ccccc1Cl | 16 µM (inactive) | 25.8 µM (inactive) | 17.5 µM (inactive) | 3.72 µM (inactive) | 14.4 µM (inactive) | 6.53 | 2.65 µM (inactive) | 16.6 µM (inactive) | – | 13.6 µM (inactive) | 19.1 µM (inactive) | 19.3 µM (inactive) | > 100 µM (inactive) | 14.1 µM (inactive) | 5.58 µM (inactive) | 11.6 µM (inactive) | 17.4 µM (inactive) | 14.8 µM (inactive) | – | – |
| CCCCCCCCCCCCC(=O)OC(c1cnco1)c1nc(C(O)CC(O)C(O)C(C)O)co1 (stereo not given) | 20.9 µM (inactive) | 0.264 µM (active) | 1.45 µM (inactive) | 0.284 µM (active) | 0.104 µM (active) | 9.44 | 0.849 µM (active) | 0.339 µM (active) | 0.144 µM (active) | 0.299 µM (active) | 0.5 µM (active) | 0.63 µM (active) | 1.78 µM (inactive) | 11.3 µM (inactive) | 0.114 µM (active) | 0.129 µM (active) | 0.755 µM (active) | 8.97 µM (inactive) | > 10 µM (inactive) | – |
| C=C1CC(C/C=C(\C)CC2CC(=C)C(=O)O2)OC1=O (stereo not given) | > 100 µM (inactive) | > 100 µM (inactive) | > 100 µM (inactive) | > 100 µM (inactive) | > 100 µM (inactive) | > 100 | > 100 µM (inactive) | > 100 µM (inactive) | > 100 µM (inactive) | > 100 µM (inactive) | > 100 µM (inactive) | > 100 µM (inactive) | > 100 µM (inactive) | > 100 µM (inactive) | > 100 µM (inactive) | > 100 µM (inactive) | > 100 µM (inactive) | > 100 µM (inactive) | – | – |
| CC(C)(C)C[P+](C)(C)c1ccccc1 | – | 89.5 µM (inactive) | > 100 µM (inactive) | > 100 µM (inactive) | > 100 µM (inactive) | > 100 | 67.1 µM (inactive) | > 100 µM (inactive) | > 100 µM (inactive) | > 100 µM (inactive) | > 100 µM (inactive) | > 100 µM (inactive) | > 100 µM (inactive) | > 100 µM (inactive) | > 100 µM (inactive) | > 100 µM (inactive) | > 100 µM (inactive) | > 100 µM (inactive) | – | – |
| COC1=C(C)C(=O)C2=C(C1=O)C1C3CC4=C(C(=O)C(OC)=C(C)C4=O)C(CNC(=O)C(C)O)N3C(C#N)C(C2)N1C (stereo not given) | 0.0107 µM (active) | 0.166 µM (active) | 0.157 µM (active) | < 0.01 µM (active) | < 0.01 µM (active) | 0.0169 | < 0.01 µM (active) | < 0.01 µM (active) | < 0.01 µM (active) | < 0.01 µM (active) | < 0.01 µM (active) | < 0.01 µM (active) | < 0.01 µM (active) | < 0.01 µM (active) | < 0.01 µM (active) | < 0.01 µM (active) | < 0.01 µM (active) | 0.101 µM (active) | 1.46 µM (inactive) | < 0.01 µM (active) |
| NS(=O)(=O)c1ccc(NC(=O)CC(=O)Nc2ccc(S(N)(=O)=O)cc2)cc1 | > 100 µM (inactive) | > 100 µM (inactive) | > 100 µM (inactive) | > 100 µM (inactive) | > 100 µM (inactive) | > 100 | > 100 µM (inactive) | > 100 µM (inactive) | > 100 µM (inactive) | > 100 µM (inactive) | > 100 µM (inactive) | > 100 µM (inactive) | > 100 µM (inactive) | > 100 µM (inactive) | > 100 µM (inactive) | > 100 µM (inactive) | > 100 µM (inactive) | > 100 µM (inactive) | – | – |
| CCN(CC)CC(=O)Nc1ccc2c(c1)C(=O)c1ccc(NC(=O)CN(CC)CC)cc1C2=O | 12.9 µM (inactive) | 27.9 µM (inactive) | 25.5 µM (inactive) | 20.7 µM (inactive) | 18.7 µM (inactive) | 36.4 | 18.8 µM (inactive) | 17.7 µM (inactive) | 14.7 µM (inactive) | 29.5 µM (inactive) | 53.2 µM (inactive) | > 100 µM (inactive) | 20.1 µM (inactive) | 23.8 µM (inactive) | 24.9 µM (inactive) | 21.6 µM (inactive) | 31.8 µM (inactive) | > 100 µM (inactive) | – | – |
| COc1cc(CNc2nc3c(N)cc(C(F)(F)F)cc3nc2-c2ccccc2)cc(OC)c1OC | 61.9 µM (inactive) | 19 µM (inactive) | 23.7 µM (inactive) | > 10 µM (inactive) | 37.8 µM (inactive) | 14.9 | > 10 µM (inactive) | > 10 µM (inactive) | 18.5 µM (inactive) | 71.1 µM (inactive) | 53.5 µM (inactive) | 52.1 µM (inactive) | 70.3 µM (inactive) | > 10 µM (inactive) | 85.1 µM (inactive) | 63.8 µM (inactive) | 63 µM (inactive) | 16.8 µM (inactive) | – | – |
| CCN(CC)CCNC(=O)c1ccc(C)c(OCc2ccccc2)c1[N+](=O)[O-] | 50 µM (inactive) | 44.8 µM (inactive) | 56.8 µM (inactive) | 31.2 µM (inactive) | 23.6 µM (inactive) | 21 | 19.5 µM (inactive) | 62.8 µM (inactive) | 22.5 µM (inactive) | > 100 µM (inactive) | 19.4 µM (inactive) | 21.2 µM (inactive) | 74.3 µM (inactive) | > 80.7 µM (inactive) | 18.3 µM (inactive) | 39.7 µM (inactive) | 19.1 µM (inactive) | 21 µM (inactive) | 33.4 µM (inactive) | – |
| O=C1NC(=O)C(C(=O)C(=O)Nc2ccc(Br)cc2)C(=O)N1 | > 100 µM (inactive) | > 100 µM (inactive) | > 100 µM (inactive) | > 100 µM (inactive) | > 100 µM (inactive) | > 100 | > 100 µM (inactive) | > 100 µM (inactive) | > 100 µM (inactive) | > 100 µM (inactive) | > 100 µM (inactive) | – | > 100 µM (inactive) | > 100 µM (inactive) | > 100 µM (inactive) | > 100 µM (inactive) | > 100 µM (inactive) | > 100 µM (inactive) | – | – |
| CC[n+]1c(/C=C/c2ccc(N(CCCl)CCCl)cc2)ccc2cc(Br)ccc21 | 1310 µM (inactive) | 3.52 µM (inactive) | 3.17 µM (inactive) | 0.345 µM (active) | 244 µM (inactive) | 14.9 | 0.246 µM (active) | 0.574 µM (active) | 1.47 µM (inactive) | 1.86 µM (inactive) | 1.21 µM (inactive) | 0.382 µM (active) | 2.48 µM (inactive) | 1.22 µM (inactive) | 1.93 µM (inactive) | 1.31 µM (inactive) | 1.11 µM (active) | 15.1 µM (inactive) | – | – |
